Data as given in PubChem BioAssay (NCI).
“And” between values parts separate entries of the source, which are not always exact repeats. Equal entries are not always repeated.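 These data come from cells grown in 96-well plates and exposed to compound for 48 hours at five concentrations. GI50 is the concentration that inhibits growth by half. TGI is the concentration that stops growth completely.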

Assays:
Assay in all cases: NCI tumour cell line growth inhibition, 48 h
[1] = test system: A498 renal
[2] = test system: A549 NSCLC
[3] = test system: COLO 205 colon
[4] = test system: HCC-2998 colon
[5] = test system: HCT-15 colon
[6] = test system: HT29 colon
[7] = test system: M14 melanoma
[8] = test system: MALME-3M melanoma
[9] = test system: SK-MEL-5 melanoma
[10] = test system: HOP-62 NSCLC

Row | SMILES | GI50 [1] | TGI [1] | GI50 [2] | TGI [2] | GI50 [3] [µM] | TGI [3] [µM] | GI50 [4] | TGI [4] | GI50 [5] [µM] | TGI [5] [µM] | GI50 [6] | TGI [6] [µM] | GI50 [7] | TGI [7] | GI50 [8] | TGI [8] | GI50 [9] | TGI [9] | TGI [10] | GI50 [10]
1 | COc1ccc(Nn2c(SCC(=O)Nc3nc(-c4ccc(Cl)cc4)cs3)nc(C)c2C)cc1 | 2.22 µM | 56.5 µM | 3.32 µM | > 100 µM | 1.94 | 3.55 | 3.07 µM | 9.91 µM | 4.79 | > 100 | 4.61 µM | 50.4 | 3.02 µM | > 100 µM | 2.9 µM | > 100 µM | 1.41 µM | 3.35 µM | – | –
2 | C1CCN(CCC2CCCCN2)CC1 (stereo not drawn) | – | > 100 µM | – | > 100 µM | – | > 100 | – | – | – | > 100 | – | > 100 | – | > 100 µM | – | > 100 µM | – | > 100 µM | > 100 µM | –
3 | CCOC(=O)C(=O)Nc1ccc(C)cc1C | – | – | – | > 100 µM | – | > 100 | – | > 100 µM | – | > 100 | – | > 100 | – | > 100 µM | – | > 100 µM | – | > 100 µM | > 100 µM | –
4 | Brc1ccc(-c2nnc(-c3nn(-c4ccccc4)c4nc5ccccc5nc34)o2)cc1 | – | – | – | > 100 µM | – | > 100 | – | > 100 µM | – | – | – | > 100 | – | > 100 µM | – | – | – | 84.5 µM | > 100 µM | –
5 | O=C(OCc1ccccc1)N1CCN(/[N+]([O-])=N/Oc2ccc([N+](=O)[O-])cc2[N+](=O)[O-])CC1 | – | – | 21.5 µM | 56 µM | 4.35 | 18.6 | – | – | 4.19 | 52.6 | 10.4 µM | > 100 | – | – | – | – | 6.43 µM | 21.1 µM | 28 µM | 12.3 µM
6 | CCn1cc(/C=C/C(C)c2cn(CC)c(=O)[nH]c2=O)c(=O)[nH]c1=O (stereo not drawn) | – | – | – | > 100 µM | – | > 100 | – | > 100 µM | – | > 100 | – | > 100 | – | > 100 µM | – | > 100 µM | – | > 100 µM | > 100 µM | –
7 | CC(=O)O/N=C/c1ncccc1OC(C)=O | – | > 100 µM | – | > 100 µM | – | > 100 | – | – | – | > 100 | – | > 100 | – | > 100 µM | – | > 100 µM | – | > 100 µM | > 100 µM | –
8 | CCOC(=O)c1sc2nc3sc(N=Nc4ccc(Cl)cc4)c(O)n3c(=S)c2c1C | 24.1 µM | 62.5 µM | 35 µM | > 100 µM | 17.7 | > 100 | – | – | 18.3 | 49.3 | 36.9 µM | > 100 | 33.2 µM | > 100 µM | 34.9 µM | 95 µM | 17.1 µM | 35.8 µM | > 100 µM | 30.3 µM
9 | Cc1ccc(NC(=O)c2cccc([N+](=O)[O-])c2O)c([N+](=O)[O-])c1 | – | 31.5 µM | – | 68 µM | – | 38.6 | – | 29.5 µM | – | 31.8 | – | 69.9 | – | 30.9 µM | – | 30.8 µM | – | – | 37.6 µM | –
10 | CC1/C=C/C=C/C=C/C=C/C=C/C=C/C=C/C(O[C@@H]2O[C@H](C)[C@H](O)[C@@H](O)[C@@H]2N)CC(O)C(C(=O)O)C(O)CC(=O)CC(O)CC(O)CC(O)CC(=O)CCCC(=O)CC(=O)OC1C(C)CC(C)C(O)CC(=O)c1ccc(N)cc1 (stereo partly drawn) | 0.0512 µM and 0.159 µM | 0.0948 µM and 0.32 µM | 0.0561 µM and 0.169 µM | 0.101 µM and 0.305 µM | 0.559 | 1.72 | 0.058 µM and 0.302 µM | 0.104 µM and 1.03 µM | – | – | 0.0585 µM and 0.345 µM | – | 0.0574 µM and 0.197 µM | 0.11 µM and 0.416 µM | 0.0543 µM and 0.177 µM | 0.104 µM and 0.365 µM | 0.0522 µM and 0.212 µM | 0.0961 µM and 0.496 µM | 0.118 µM and 0.402 µM | 0.063 µM and 0.192 µM
11 | OCCCN=NNc1ccc(-c2nc3ccccc3[nH]2)cc1 | – | – | 2.62 µM | > 100 µM | 12.3 | 52.9 | – | – | 4.43 | > 100 | – | – | 39.9 µM | 69.4 µM | – | – | 15.6 µM | 88.6 µM | 71.3 µM | 50.5 µM
12 | COc1ccc(C2=NNC(=O)OC2c2ccccc2)cc1 (stereo not drawn) | – | > 100 µM | – | > 100 µM | – | > 100 | – | > 100 µM | – | > 100 | – | > 100 | – | > 100 µM | – | > 100 µM | – | – | > 100 µM | –
13 | NC(=O)C1=NNc2ccccc2C(=O)N1c1ccccc1 | – | > 100 µM | – | > 100 µM | – | > 100 | – | – | – | > 100 | – | > 100 | – | > 100 µM | – | > 100 µM | – | > 100 µM | > 100 µM | –
14 | COc1cc(C(=O)/C=C/c2cc(C(=O)c3cc(OC)c(OC)c(OC)c3)ccc2OC)ccc1N | 2.14 µM | 5.92 µM | 3.2 µM | 29 µM | – | – | 1.27 µM | 2.64 µM | 0.37 | 2.12 | 0.422 µM | 1.56 | 0.752 µM | 3.06 µM | 1.47 µM | 4.16 µM | 1.02 µM | 2.18 µM | 8.31 µM | 2.03 µM
15 | COc1cc(/C=C/c2cc(/C=C/c3ccc(O)c(OC)c3)n(-c3c(C)cccc3C)c(=O)n2)ccc1O | 2.4 µM | 6.08 µM | 1.18 µM | 7.6 µM | 2.07 | 4.19 | 2.28 µM | 9.15 µM | 0.442 | 4.61 | 2.13 µM | 4.71 | – | – | – | – | 0.559 µM | 1.9 µM | 2.76 µM | 1.08 µM
16 | CCN(CC)c1cc(/C=C/c2ccc(OC)c(OC)c2)nc2cc(F)c(F)cc12 | 1.95 µM | 6.2 µM | 30 µM | > 100 µM | 26.7 | > 100 | 70.6 µM | > 100 µM | 22.8 | > 100 | – | – | 26.3 µM | > 100 µM | – | – | 6.33 µM | > 100 µM | 5.44 µM | 2.08 µM
17 | O=C(CC1(O)C(=O)Nc2ccccc21)c1ccccc1Cl (stereo not drawn) | – | > 100 µM | – | > 100 µM | – | > 100 | – | – | – | > 100 | – | > 100 | – | > 100 µM | – | > 100 µM | – | > 100 µM | – | –
18 | COc1ccc(C(O)/C(=N\NC(N)=S)c2nc3ccc([N+](=O)[O-])cc3[nH]c2=O)cc1OC (stereo not drawn) | – | > 100 µM | – | > 100 µM | – | > 100 | – | > 100 µM | – | – | – | > 100 | – | > 100 µM | – | > 100 µM | – | – | > 100 µM | –
